The record followed here is ChEMBL document CHEMBL1201862, “PubChem BioAssay data set” (2004).

The source made the active and inactive calls.

The target of assay [1] is T1, Short transient receptor potential channel 4 (Mus musculus, UniProt Q9QUQ5).
T1 sequence (Q9QUQ5 whole entry): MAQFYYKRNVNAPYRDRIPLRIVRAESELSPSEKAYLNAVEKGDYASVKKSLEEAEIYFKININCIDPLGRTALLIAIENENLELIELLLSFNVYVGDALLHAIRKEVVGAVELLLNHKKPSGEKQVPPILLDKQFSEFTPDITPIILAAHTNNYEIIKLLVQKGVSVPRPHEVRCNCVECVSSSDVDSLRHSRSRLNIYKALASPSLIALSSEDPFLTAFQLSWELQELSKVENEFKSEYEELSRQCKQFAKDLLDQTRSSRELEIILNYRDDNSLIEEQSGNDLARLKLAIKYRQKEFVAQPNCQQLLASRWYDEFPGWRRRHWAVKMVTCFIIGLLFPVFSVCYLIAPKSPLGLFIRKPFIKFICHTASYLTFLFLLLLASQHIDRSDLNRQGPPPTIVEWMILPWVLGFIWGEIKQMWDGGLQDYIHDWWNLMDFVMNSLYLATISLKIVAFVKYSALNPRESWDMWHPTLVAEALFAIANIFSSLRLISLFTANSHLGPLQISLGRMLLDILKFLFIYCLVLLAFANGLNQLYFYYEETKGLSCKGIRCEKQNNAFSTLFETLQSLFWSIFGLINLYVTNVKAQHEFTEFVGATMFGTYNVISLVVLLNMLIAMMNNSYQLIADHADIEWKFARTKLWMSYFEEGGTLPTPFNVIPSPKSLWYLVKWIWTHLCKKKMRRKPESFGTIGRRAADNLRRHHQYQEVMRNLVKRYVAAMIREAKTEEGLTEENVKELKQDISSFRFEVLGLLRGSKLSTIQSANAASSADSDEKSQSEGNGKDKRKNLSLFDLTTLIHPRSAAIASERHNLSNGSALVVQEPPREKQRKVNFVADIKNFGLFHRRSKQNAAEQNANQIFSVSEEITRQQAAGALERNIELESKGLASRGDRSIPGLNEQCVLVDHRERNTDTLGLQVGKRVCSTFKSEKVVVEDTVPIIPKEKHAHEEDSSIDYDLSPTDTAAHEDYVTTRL
Nature of the assay: potentiation of DAMGO-evoked TRPC4 calcium signal – cell-based, HEK293 TRPC4/mu-opioid, Fluo-4 calcium, EC20 DAMGO, dose response (AID 434941).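 Note: HEK293 cells coexpressing TRPC4 and mu opioid receptor stimulated by EC20 DAMGO.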 Type of assay: functional.

Assay [2] concerns the target Glyceraldehyde-3-phosphate dehydrogenase (Homo sapiens, UniProt P04406).
Assay [3] deals with T2, Alkaline phosphatase, tissue-nonspecific isozyme (Homo sapiens, UniProt P05186).
T2 sequence (P05186 whole entry): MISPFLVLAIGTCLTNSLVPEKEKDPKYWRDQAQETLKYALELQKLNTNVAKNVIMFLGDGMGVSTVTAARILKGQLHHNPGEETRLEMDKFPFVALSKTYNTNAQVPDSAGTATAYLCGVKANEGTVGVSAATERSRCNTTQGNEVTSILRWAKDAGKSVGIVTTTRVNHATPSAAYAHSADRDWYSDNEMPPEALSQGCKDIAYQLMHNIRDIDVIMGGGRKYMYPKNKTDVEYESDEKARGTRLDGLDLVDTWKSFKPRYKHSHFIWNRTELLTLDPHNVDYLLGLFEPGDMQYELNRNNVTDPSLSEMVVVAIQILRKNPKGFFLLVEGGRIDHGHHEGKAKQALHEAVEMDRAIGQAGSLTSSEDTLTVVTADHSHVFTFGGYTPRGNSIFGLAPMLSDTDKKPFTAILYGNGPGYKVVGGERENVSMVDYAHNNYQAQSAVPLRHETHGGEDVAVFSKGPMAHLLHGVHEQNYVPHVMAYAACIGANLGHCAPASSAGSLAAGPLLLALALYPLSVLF
Nature of the assay: potency against alkaline phosphatase TNAP – biochemical, luminescent, dose response, SAR follow-up (AID 1056).

The target in assay [4] is G-protein coupled receptor 55 (Homo sapiens, UniProt Q9Y2T6). The experiment in a line: selective activators of receptor GPR55 – imaging, U2OS cells, beta-arrestin-GFP redistribution, primary screen (AID 1961). Format: functional.
G-protein coupled receptor 55, sequence (Q9Y2T6 whole entry): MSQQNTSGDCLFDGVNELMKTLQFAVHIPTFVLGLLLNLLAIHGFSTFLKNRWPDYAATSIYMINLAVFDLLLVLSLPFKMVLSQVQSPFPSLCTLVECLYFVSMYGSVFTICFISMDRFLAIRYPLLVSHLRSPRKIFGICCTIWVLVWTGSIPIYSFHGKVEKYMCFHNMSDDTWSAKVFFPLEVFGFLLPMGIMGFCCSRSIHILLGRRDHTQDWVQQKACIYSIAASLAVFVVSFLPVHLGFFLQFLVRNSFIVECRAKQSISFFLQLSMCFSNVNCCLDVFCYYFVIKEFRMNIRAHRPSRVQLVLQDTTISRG
Assay [5] concerns the target Eukaryotic translation initiation factor 4H (Homo sapiens, UniProt Q15056). The experiment in a line: eIF4H binding inhibition – biochemical, uHTS, fluorescence polarization, translation initiation inhibitor project, primary screen (AID 2012). In general terms: Fluorescence polarisation rises when a labelled molecule tumbles more slowly, as on binding a larger partner.

The target of assay [6] is Polyadenylate-binding protein 1 (Homo sapiens, UniProt P11940). Nature of the assay: blockers of PABP interaction with poly(A) – biochemical, fluorescence polarization, […] (AID 2014).
Polyadenylate-binding protein 1, sequence (P11940 whole entry): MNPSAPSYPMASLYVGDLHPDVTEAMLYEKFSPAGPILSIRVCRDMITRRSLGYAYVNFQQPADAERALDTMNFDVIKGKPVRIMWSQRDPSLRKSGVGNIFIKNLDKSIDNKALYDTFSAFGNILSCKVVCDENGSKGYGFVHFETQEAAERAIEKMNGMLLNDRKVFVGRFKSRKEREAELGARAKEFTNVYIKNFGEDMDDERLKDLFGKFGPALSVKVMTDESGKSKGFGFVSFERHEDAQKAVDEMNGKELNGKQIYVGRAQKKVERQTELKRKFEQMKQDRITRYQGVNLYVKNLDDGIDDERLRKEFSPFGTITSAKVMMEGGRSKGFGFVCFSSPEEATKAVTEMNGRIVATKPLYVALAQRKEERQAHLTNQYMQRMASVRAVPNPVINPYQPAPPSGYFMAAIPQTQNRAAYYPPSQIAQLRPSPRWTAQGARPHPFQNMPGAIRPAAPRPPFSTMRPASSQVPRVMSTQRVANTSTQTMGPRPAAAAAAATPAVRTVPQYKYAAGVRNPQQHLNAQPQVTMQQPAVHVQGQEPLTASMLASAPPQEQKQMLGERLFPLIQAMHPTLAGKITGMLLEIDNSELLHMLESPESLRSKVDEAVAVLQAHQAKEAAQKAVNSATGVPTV
Assay [7] in a line: HPDE-C7 pancreatic duct cell viability loss – fluorescence, HTS (AID 430). Format: functional, cell-based. Particulars: Homo sapiens.
A short description of assay [8]: viability loss of HPDE-C7K cells – cell-based, fluorescence, HTS, primary screen (AID 431). Format: functional. Particulars: Homo sapiens.
Assay [9] addresses G-protein coupled receptor 35 (Homo sapiens, UniProt Q9HC97). The experiment in a line: inhibition of zaprinast-stimulated GPR35 beta-arrestin translocation – imaging, U2OS, beta-arrestin-GFP, zaprinast agonist, primary screen (AID 2058).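 Note: antagonist potency meaning inhibition of agonist-induced arrestin redistribution.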 Type of assay: functional.
Assay [10] deals with Disintegrin and metalloproteinase domain-containing protein 17 (Homo sapiens, UniProt P78536). The experiment in a line: exosite inhibitors of ADAM17, dose response, biochemical (AID 743260).
Disintegrin and metalloproteinase domain-containing protein 17, sequence (P78536 whole entry, the tested form may be a part): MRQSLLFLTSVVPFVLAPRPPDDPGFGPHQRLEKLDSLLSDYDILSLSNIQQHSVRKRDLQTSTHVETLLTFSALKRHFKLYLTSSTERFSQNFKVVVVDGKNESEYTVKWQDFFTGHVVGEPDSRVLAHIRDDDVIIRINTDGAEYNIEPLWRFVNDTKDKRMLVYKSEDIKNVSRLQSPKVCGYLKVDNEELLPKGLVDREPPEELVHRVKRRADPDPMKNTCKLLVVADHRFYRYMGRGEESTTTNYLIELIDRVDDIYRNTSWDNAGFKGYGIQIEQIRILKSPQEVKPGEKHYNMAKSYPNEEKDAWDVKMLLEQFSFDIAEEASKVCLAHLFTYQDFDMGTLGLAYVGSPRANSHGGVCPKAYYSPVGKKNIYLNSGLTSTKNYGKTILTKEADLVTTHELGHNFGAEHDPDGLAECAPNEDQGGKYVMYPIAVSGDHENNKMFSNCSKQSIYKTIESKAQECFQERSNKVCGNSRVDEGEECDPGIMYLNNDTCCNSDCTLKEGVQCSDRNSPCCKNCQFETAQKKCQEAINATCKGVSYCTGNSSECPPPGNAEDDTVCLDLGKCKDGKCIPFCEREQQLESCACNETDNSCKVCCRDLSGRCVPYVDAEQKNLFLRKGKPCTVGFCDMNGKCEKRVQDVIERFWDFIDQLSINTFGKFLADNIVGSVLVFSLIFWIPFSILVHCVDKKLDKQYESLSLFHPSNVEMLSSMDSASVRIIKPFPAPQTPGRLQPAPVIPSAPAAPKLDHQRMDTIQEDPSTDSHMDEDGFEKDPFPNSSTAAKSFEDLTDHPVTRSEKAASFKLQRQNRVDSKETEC
Assay [11] is described as follows: inhibition of ADAM10 peptide cleavage – biochemical, FRET peptide substrate, recombinant human ADAM10, selectivity assay for ADAM17 exosite inhibitor project, dose response (AID 743259).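 Note: ADAM10 enzyme cleaving a FRET peptide substrate.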
In assay [12] the target is T3, DNA dC->dU-editing enzyme APOBEC-3A (Homo sapiens, UniProt P31941). The experiment in a line: Dose Response confirmation of small molecule APOBEC3A DNA Deaminase Inhibitors via a fluorescence-based single-stranded DNA deaminase assay. [Related pubchem assays (depositor defined):AID493011, AID493024]. Format: functional.
T3 sequence (P31941 whole entry): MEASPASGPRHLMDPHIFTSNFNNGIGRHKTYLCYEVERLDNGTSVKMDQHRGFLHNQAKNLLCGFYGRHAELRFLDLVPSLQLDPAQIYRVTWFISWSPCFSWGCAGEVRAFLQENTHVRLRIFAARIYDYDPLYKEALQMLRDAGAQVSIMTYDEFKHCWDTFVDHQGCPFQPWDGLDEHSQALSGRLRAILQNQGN
The target of assay [13] is T4, DNA dC->dU-editing enzyme APOBEC-3G (Homo sapiens, UniProt Q9HC16). Type of assay: functional.
T4 sequence (Q9HC16 whole entry): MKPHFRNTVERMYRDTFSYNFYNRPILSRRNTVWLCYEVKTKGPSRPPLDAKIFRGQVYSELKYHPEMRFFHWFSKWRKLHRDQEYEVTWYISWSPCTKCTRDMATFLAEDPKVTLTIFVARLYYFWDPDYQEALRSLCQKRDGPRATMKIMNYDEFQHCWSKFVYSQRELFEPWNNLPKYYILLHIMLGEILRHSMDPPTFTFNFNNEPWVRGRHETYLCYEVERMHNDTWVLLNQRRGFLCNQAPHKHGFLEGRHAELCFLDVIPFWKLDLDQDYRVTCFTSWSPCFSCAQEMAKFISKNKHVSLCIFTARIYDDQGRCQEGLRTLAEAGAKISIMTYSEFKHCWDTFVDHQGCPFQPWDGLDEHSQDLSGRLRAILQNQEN
Assay [14] can be described thus: HEK-293T cell viability reduction – luminescence, B-cell screen hits, cytotoxicity control for BCR NF-kB inhibitor project, dose response (AID 489021).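 Note: HEK-293T cells carrying an NF-kB luciferase reporter; cells exposed to compound for about 14 hours before viability readout.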 Format: functional, cell-based.
The nature of assay [15]: Luminescence Cell-Based Dose Confirmation HTS to Identify Activators of 5'UTR Stem-Loop Driven Alpha-Synuclein mRNA Translation in H4 Neuroglioblastoma Cells. [Related pubchem assays: 1829 (Project Summary), 1814 (Primary HTS)]. Type of assay: functional.
Assay [16] in a line: Luminescence Cell-Based Dose Response HTS to Identify Activators of Luciferase Translation or Activity in H4 […] Cells. [Related pubchem assays: 1829 (Project Summary), 1814 (Primary HTS)]. Type of assay: functional.
For another assay, the system named is H4. The experiment in a line: Luminescence Cell-Based Dose Response HTS to Identify Activators of 5'UTR Stem-Loop Driven Prion Protein mRNA Translation in H4 Neuroglioblastoma Cells. [Related pubchem assays: 1829 (Project Summary), 1814 (Primary HTS)]. Format: functional. Particulars: Homo sapiens.
The target of assay [17] is T3, DNA dC->dU-editing enzyme APOBEC-3A. The experiment in a line: A3A deaminase inhibition for selectivity – biochemical, dose response (AID 504722). Type of assay: functional.
Assay [18] concerns the target T4, DNA dC->dU-editing enzyme APOBEC-3G. Nature of the assay: Dose Response confirmation of small molecule APOBEC3G DNA Deaminase Inhibitors via a fluorescence-based single-stranded DNA deaminase assay. [Related pubchem assays (depositor defined):AID493012, AID493028]. Type of assay: functional.
The target in assay [19] is T5, Tyrosine-protein phosphatase non-receptor type 7 (Homo sapiens, UniProt P35236).
T5 sequence (P35236 whole entry): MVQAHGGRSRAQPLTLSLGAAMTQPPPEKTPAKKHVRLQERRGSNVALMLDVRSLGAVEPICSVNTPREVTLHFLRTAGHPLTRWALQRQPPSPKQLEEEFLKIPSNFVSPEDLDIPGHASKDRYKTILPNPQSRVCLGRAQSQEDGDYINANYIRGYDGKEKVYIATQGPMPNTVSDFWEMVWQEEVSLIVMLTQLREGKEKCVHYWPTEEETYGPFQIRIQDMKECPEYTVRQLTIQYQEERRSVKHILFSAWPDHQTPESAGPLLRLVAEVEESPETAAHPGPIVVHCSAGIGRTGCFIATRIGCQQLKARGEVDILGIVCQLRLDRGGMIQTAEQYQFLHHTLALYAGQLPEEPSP
The experiment in a line: redox-active compounds inhibiting HePTP phosphatase – biochemical, fluorescence, mechanism study (AID 2068). Format: functional.

The target in assay [20] is T6, Dual specificity protein phosphatase 6 (Rattus norvegicus, UniProt Q64346).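 Note: confirmatory in vitro dose-response testing of MKP-3 inhibition; recombinant His-tagged MKP-3 made in E. coli BL21 with OMFP substrate.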
T6 sequence (Q64346 whole entry): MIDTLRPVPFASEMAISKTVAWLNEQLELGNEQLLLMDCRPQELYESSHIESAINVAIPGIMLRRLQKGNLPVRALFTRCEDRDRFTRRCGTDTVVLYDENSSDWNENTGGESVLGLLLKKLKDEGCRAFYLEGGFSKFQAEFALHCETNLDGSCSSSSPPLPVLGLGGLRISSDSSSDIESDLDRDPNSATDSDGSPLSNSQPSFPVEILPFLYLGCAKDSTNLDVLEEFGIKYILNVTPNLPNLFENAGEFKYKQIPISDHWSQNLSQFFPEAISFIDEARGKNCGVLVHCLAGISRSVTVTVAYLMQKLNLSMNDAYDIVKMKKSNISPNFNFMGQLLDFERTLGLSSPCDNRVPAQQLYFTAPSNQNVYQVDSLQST
Type of assay: functional.

The target in a further assay is T7, Coagulation factor XII (Homo sapiens, UniProt P00748).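 Note: activated factor XIIa alpha cleaving a fluorogenic AMC peptide substrate; inhibitor potency from loss of enzyme activity.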
T7 sequence (P00748 whole entry): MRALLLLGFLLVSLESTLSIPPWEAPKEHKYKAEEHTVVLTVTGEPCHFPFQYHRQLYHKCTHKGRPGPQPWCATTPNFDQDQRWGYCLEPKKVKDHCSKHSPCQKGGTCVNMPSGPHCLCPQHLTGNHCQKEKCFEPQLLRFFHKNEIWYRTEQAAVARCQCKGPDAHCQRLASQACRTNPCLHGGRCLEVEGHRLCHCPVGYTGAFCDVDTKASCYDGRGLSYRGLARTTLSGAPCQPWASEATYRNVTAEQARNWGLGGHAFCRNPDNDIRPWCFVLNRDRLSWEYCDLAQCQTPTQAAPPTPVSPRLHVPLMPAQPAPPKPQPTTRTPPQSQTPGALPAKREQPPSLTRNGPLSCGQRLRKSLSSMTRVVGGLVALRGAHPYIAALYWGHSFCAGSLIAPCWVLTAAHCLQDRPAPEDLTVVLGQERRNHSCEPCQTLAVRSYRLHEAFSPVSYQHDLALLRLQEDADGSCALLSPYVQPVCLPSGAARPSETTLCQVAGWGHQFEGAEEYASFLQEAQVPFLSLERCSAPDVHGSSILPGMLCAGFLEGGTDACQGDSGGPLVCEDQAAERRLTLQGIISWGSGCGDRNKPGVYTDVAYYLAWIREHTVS
Type of assay: functional.

G-protein coupled receptor 35, sequence (Q9HC97 whole entry, the tested form may be a part): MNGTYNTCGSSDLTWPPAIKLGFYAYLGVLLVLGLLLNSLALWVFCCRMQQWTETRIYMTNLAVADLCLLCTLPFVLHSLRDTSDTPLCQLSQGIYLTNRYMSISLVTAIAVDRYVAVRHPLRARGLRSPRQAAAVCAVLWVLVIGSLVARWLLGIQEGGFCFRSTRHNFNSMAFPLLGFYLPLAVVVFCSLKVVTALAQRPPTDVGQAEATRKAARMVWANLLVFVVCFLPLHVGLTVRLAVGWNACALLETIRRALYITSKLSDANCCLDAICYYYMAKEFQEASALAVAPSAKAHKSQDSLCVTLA
Glyceraldehyde-3-phosphate dehydrogenase, sequence (P04406 whole entry): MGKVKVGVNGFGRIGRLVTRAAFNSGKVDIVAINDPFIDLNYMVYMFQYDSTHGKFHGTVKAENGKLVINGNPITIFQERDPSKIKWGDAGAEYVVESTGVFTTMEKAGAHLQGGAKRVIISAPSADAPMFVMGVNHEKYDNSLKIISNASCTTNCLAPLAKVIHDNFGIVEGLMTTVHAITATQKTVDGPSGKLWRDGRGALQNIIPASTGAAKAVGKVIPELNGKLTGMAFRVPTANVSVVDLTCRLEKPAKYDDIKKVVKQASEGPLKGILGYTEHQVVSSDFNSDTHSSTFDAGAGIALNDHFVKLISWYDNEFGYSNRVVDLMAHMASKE

`O=C(CCN1CCN(Cc2ccccc2)CC1)Nc1ccc(OCc2ccccc2)cc1`: the EC50 (in general, the midpoint of the concentration-response curve) in assay [1] was 0.13 µM (active).

As for `O=C1c2c(Cl)c(Cl)c(Cl)c(Cl)c2C(=O)N1c1nc(Cc2ccccc2)n[nH]1`, the IC50 (as a rule, the concentration that gives 50% inhibition) is > 100 µM (not active) in assay [2] and > 100 µM (inactive) in assay [3].

Take `Cc1[nH]c2ccc(-c3nnc(SCC(=O)NCc4ccco4)n3Cc3ccccc3)cc2c1C`: the EC50 in [4] is 5.78 µM (active).

Consider `CCCC[N+]12C3C[C@H](C4[C@H](O)[C@]5(C[C@@H]41)c1ccccc1N(C)[C@@H]35)[C@H](CC)[C@H]2O` (stereo not given in full), for which the IC50 in assay [5] was > 100 µM (inactive); in assay [6], 5.27 µM (active).

In the case of `CCCCCCn1c(N2CCN(c3ccccc3)CC2)nc2c1c(=O)n(C)c(=O)n2C`, the results for the EC50 in [7], in [8] and in assay [1] were > 20 µM (not active), > 20 µM (not active) and 6.68 µM (active), respectively.

For `Cc1nc(N2CCCCC2)c2c(C)c(C(=O)Nc3ccc4c(c3)OCCO4)sc2n1`, the figures for the IC50 in assay [9], in [10] and in assay [11] were 2.07 µM (active), > 69.5 µM (inactive) and > 69.5 µM (inactive), respectively.

With `CCCC[N@+]12CC[C@H](CC1)C(=C(c1ccccc1)c1ccccc1)C2`, the IC50 in [12] is 2.16 µM (active); in assay [13] it was 2.19 µM (active).

`CCC(CC)C(=O)Nc1ccc(Sc2ccc([N+](=O)[O-])cc2)cc1`: in assay [14], the IC50 is > 80 µM (inactive).

Turning to `CC1Cc2ccccc2N1S(=O)(=O)c1cnc(Cl)c(Cl)c1` (stereo not given), the IC50 in [14] is > 80 µM (inactive).

`CC(C)(C)C(=O)c1cn(CC(=O)NCc2ccco2)c2ccccc12`: the EC50 in assay [15] is 14.9 µM (active); in assay [16], 15.9 µM (active); in the assay on H4, 13.2 µM (active). The IC50 in assay [12] was 3.56 µM (active); in assay [13] it was 4.75 µM (active).

Consider `CCn1c(S)nnc1CSc1nc2ccccc2s1`, for which the IC50 in [17] was > 100 µM (inactive); in [18] it was 3.73 µM (active). The EC50 in [4] was > 32 µM (inactive).

Take `COc1cc(C(=S)NCc2ccc(Cl)c(C)c2)ccc1O`: the IC50 was 3.06 µM (active) in assay [19] and > 100 µM (inactive) in [20].

With `CC1(C)CC2CC(C)(CN2C(=O)Nc2ccc3nc(-c4ccco4)c(-c4ccco4)nc3c2)C1` (stereo not given), in [19], the IC50 is 2.92 µM (active).

As to `O=C(O)c1ccc(/C=N/n2cc(-c3ccccc3)nc2S)cc1`, the results for the IC50 in assay [17] and in assay [18] were > 100 µM (inactive) and 3.33 µM (active), respectively.

As to `COC(=O)/C(=C/Nc1ccccc1)[N+](=O)[O-]`, the IC50 on Coagulation factor XII is > 50 µM (inactive).
